Reference: ChEMBL document CHEMBL5360663, “Discovery of a Novel Photocaged PI3K Inhibitor Capable of Real-Time Reporting of Drug Release” (ACS Med Chem Lett, 2023)
Activity calls are given as the source filed them. The rule behind the calls is not given here.

Assays:
[1] = test system: U-87 MG; test: Antiproliferative activity against human U-87 MG cells assessed as inhibition of cell growth measured after 72 hrs by CTG assay; type: functional, cell-based, U-87MG ATCC
[2] = molecular target: Phosphatidylinositol 4,5-bisphosphate 3-kinase catalytic subunit alpha isoform (Homo sapiens, UniProt P42336); test: Inhibition of PI3Kalpha (unknown origin) using PIP2 as substrate in presence of ATP by Kinase-Glo assay
Chain of Phosphatidylinositol 4,5-bisphosphate 3-kinase catalytic subunit alpha isoform (P42336 whole entry, canonical isoform): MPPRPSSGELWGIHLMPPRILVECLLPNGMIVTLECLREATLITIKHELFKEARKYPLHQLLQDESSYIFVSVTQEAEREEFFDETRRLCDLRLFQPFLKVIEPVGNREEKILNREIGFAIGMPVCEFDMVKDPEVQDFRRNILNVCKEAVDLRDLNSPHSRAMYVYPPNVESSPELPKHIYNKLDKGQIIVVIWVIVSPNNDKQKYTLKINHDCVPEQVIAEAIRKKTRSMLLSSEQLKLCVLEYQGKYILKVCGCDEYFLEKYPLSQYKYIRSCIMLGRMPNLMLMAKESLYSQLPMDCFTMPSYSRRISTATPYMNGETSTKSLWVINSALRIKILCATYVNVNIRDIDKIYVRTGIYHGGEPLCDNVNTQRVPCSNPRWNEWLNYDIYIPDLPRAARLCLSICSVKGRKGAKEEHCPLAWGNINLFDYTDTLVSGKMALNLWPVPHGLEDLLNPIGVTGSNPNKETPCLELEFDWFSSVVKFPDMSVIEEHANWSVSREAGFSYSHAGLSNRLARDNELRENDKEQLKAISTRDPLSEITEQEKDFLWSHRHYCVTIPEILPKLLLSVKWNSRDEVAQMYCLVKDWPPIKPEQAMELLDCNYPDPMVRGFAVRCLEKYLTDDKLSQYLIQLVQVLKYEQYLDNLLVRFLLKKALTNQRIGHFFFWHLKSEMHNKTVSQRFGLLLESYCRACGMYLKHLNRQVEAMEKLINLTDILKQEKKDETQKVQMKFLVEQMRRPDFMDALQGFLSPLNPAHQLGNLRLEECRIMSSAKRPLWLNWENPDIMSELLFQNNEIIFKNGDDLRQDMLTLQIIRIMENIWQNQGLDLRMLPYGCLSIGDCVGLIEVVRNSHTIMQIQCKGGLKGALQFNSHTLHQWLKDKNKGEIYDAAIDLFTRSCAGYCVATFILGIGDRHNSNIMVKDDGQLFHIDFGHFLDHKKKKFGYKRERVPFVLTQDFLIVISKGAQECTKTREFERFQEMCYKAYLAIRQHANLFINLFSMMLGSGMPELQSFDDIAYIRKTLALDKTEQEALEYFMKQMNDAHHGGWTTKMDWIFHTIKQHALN

[3] = test system: SK-MEL-5; test: Antiproliferative activity against human SK-MEL-5 cells assessed as inhibition of cell growth measured after 72 hrs by CTG assay; type: functional, cell-based; settings: SK-MEL-5, 72 h
[4] = test system: SK-MEL-2; test: Antiproliferative activity against human SK-MEL-2 cells assessed as inhibition of cell growth measured after 72 hrs by CTG assay; type: functional, cell-based; settings: SK-MEL-2, 72 h
[5] = test system: HGC-27; test: Inhibition of PI3K in human HGC-27 cells assessed as reduction in AKT phosphorylation at S473 residue at 10 nM pre-treated with compound followed by UV irradiation for 5 mins measured after 24 hrs by Western blotting analysis; type: cell-based; settings: time 1445.0 min
[6] = test system: HGC-27; test: Inhibition of colony formation in human HGC-27 cells at 10 nM pre-treated with compound followed by UV irradiation for 5 mins measured after 3 days by crystal violet staining based analysis; type: functional, cell-based; settings: time 4325.0 min
[7] = test system: MCF7; test: Antiproliferative activity against human MCF7 cells assessed as inhibition of cell growth measured after 72 hrs by CTG assay; type: functional, cell-based; settings: MCF7, 72 h
[8] = Antiproliferative activity against human U373 cells assessed as inhibition of cell growth measured after 72 hrs by CTG assay; type: functional, cell-based; settings: U373 MG
[9] = test system: HGC-27; test: Inhibition of PI3K in human HGC-27 cells assessed as reduction in S6RP phosphorylation at S240 and 244 residue at 10 nM pre-treated with compound followed by UV irradiation for 5 mins measured after 24 hrs by Western blotting analysis; type: cell-based; settings: time 1445.0 min
[10] = test system: HGC-27; test: Antiproliferative activity against human HGC-27 cells assessed as inhibition of cell growth measured after 72 hrs by CTG assay; type: functional, cell-based; settings: HGC-27, 72 h
[11] = Selectivity ratio of IC50 for antiproliferative activity against human U373 cells to IC50 for antiproliferative activity against human U373 cells in presence of UV irradiation; type: functional
[12] = Selectivity ratio of IC50 for antiproliferative activity against human SK-MEL-5 cells to IC50 for antiproliferative activity against human SK-MEL-5 cells in presence of UV irradiation; type: functional
[13] = test system: HGC-27; test: Antiproliferative activity against human HGC-27 cells assessed as inhibition of cell growth pre-treated with compound followed by UV irradiation for 5 mins measured after 72 hrs by CTG assay; type: functional, cell-based; settings: HGC-27, light or radiation study
[14] = test system: HGC-27; test: Photorelease activity in human HGC-27 cells assessed as release of 7-hydroxy-3-(hydroxymethyl)-2H-chromen-2-one incubated for 2 hrs in presence of UV irradiation by confocal microscopic analysis; type: ADME, cell-based; settings: hgc-27, 2 h, dose 1-10 µM
[15] = test system: MCF7; test: Antiproliferative activity against human MCF7 cells assessed as inhibition of cell growth pre-treated with compound followed by UV irradiation for 5 mins measured after 72 hrs by CTG assay; type: functional, cell-based; settings: MCF7, light or radiation study
[16] = test system: HGC-27; test: Photorelease activity in human HGC-27 cells assessed as increase in intracellular fluorescence intensity incubated for 2 hrs in presence of UV irradiation for 5 to 30 mins by fluorescence based microplate reader analysis; type: ADME, cell-based; settings: hgc-27, 2 h, dose 0.4-10 µM
[17] = Selectivity ratio of IC50 for antiproliferative activity against human MCF7 cells to IC50 for antiproliferative activity against human MCF7 cells in presence of UV irradiation; type: toxicity, cell-based; settings: read-out: Ratio IC50
[18] = test system: HGC-27; test: Photorelease activity in human HGC-27 cells assessed as release of 7-hydroxy-3-(hydroxymethyl)-2H-chromen-2-one incubated for 2 hrs by confocal microscopic analysis; type: ADME, cell-based; settings: hgc-27, 2 h
[19] = test system: U-87 MG; test: Antiproliferative activity against human U-87 MG cells assessed as inhibition of cell growth pre-treated with compound followed by UV irradiation for 5 mins measured after 72 hrs by CTG assay; type: functional, cell-based, U-87MG ATCC; settings: light or radiation study
[20] = Selectivity ratio of IC50 for antiproliferative activity against human HGC-27 cells to IC50 for antiproliferative activity against human HGC-27 cells in presence of UV irradiation; type: functional
[21] = test system: SK-MEL-2; test: Antiproliferative activity against human SK-MEL-2 cells assessed as inhibition of cell growth pre-treated with compound followed by UV irradiation for 5 mins measured after 72 hrs by CTG assay; type: functional, cell-based; settings: SK-MEL-2, light or radiation study
[22] = test system: HGC-27; test: Photorelease activity in human HGC-27 cells assessed as increase in intracellular fluorescence intensity at 0.4 to 10 uM incubated for 2 hrs in presence of UV irradiation for 5 to 30 mins by fluorescence based microplate reader analysis; type: ADME, cell-based; settings: hgc-27, 2 h, TDE = time-dependent effect, dose 0.4-10 µM
[23] = test system: SK-MEL-5; test: Antiproliferative activity against human SK-MEL-5 cells assessed as inhibition of cell growth pre-treated with compound followed by UV irradiation for 5 mins measured after 72 hrs by CTG assay; type: functional, cell-based; settings: SK-MEL-5, light or radiation study
[24] = Antiproliferative activity against human U373 cells assessed as inhibition of cell growth pre-treated with compound followed by UV irradiation for 5 mins measured after 72 hrs by CTG assay; type: functional, cell-based; settings: U373 MG, light or radiation study
[25] = Selectivity ratio of IC50 for antiproliferative activity against human U-87 MG cells to IC50 for antiproliferative activity against human U-87 MG cells in presence of UV irradiation; type: functional, U-87MG ATCC
[26] = Selectivity ratio of IC50 for antiproliferative activity against human SK-MEL-2 cells to IC50 for antiproliferative activity against human SK-MEL-2 cells in presence of UV irradiation; type: functional

| IC50 [1] [nM] | IC50 [2] [nM] | IC50 [3] [nM] | IC50 [4] [nM] | IC50 [7] [nM] | SMILES | inhibition [5] | Activity [6] | IC50 [8] [nM] | inhibition [9] | IC50 [10] [nM] | other results |
| --- | --- | --- | --- | --- | --- | --- | --- | --- | --- | --- | --- |
| 11 | 2.07 | 190 | 130 | 295 | COc1ncc(-c2cc(OC3CCOCC3)c3ncnc(C)c3c2)cc1N(Cc1cc2ccc(O)cc2oc1=O)S(=O)(=O)c1ccc(F)cc1F | Active | Active | 25 | Active | 3.9 |  |
| 3260 | 18.9 | 6560 | 2810 | > 10000 | COc1cc(COc2ccc3cc(CN(c4cc(-c5cc(OC6CCOCC6)c6ncnc(C)c6c5)cnc4OC)S(=O)(=O)c4ccc(F)cc4F)c(=O)oc3c2)c([N+](=O)[O-])cc1OC | Active | Active | > 10000 | Active | 701 | Ratio IC50 [11]: >217; Ratio IC50 [12]: 15; IC50 [13]: 3.7 nM; Activity [14]: Dose-Dependent Effect; IC50 [15]: 428 nM; Activity [16]: Dose-Dependent Effect; selectivity ratio [17]: > 23; Activity [18]: Not Active; IC50 [19]: 52 nM; Ratio IC50 [20]: 189; IC50 [21]: 143 nM; Activity [22]: Tde; IC50 [23]: 434 nM; IC50 [24]: 46 nM; Ratio IC50 [25]: 63; Ratio IC50 [26]: 20 |
| 50 | 0.17 | 65 | 190 | 282 | COc1ncc(-c2cc(OC3CCOCC3)c3ncnc(C)c3c2)cc1NS(=O)(=O)c1ccc(F)cc1F | Active | Active | 57 | Active | 1.8 |  |
